Test results as given in patent publication US20220218679A1, “NOVEL COMPOUNDS AND PHARMACEUTICAL COMPOSITIONS THEREOF FOR THE TREATMENT OF INFLAMMATORY DISORDERS” (Galapagos NV, priority 2019, published 2022).

How the values were obtained:
[1] = tested on: CL097 triggered TNFα release in human whole blood; experiment: Ex vivo human TNFα release inhibition (human whole blood assay); format: cell-based; conditions: CL097 2 μg/mL, 3 h 30 min at 37° C.
Text: 4.10.1. Ex Vivo Human IFNα and TNFα Release Inhibition (Human Whole Blood Assay)
The aim of the assay is to evaluate the activity of compounds of the invention on the activated TLR/IRAK-4 pathway in an ex vivo human whole blood setting. Toll-like receptors (TLRs) are pattern recognition receptors that recognize a wide variety of microbial molecules, called pathogen-associated molecular patterns (PAMPs). Human TLR7 and TLR8 recognize imidazoquinoline compounds (e.g., CL097—CAS n #1026249-18-2) and single stranded RNAs as their natural ligands. Activation of TLRs leads to the production of several cytokines (e.g., IFNα, TNFα, IL-8, IL-6) by the TLR agonist-treated cells, whereas IRAK4 leads to the production of IFNα. Cytokine release is used as readout in this assay and represents a measure for the level of inhibition of the TLR/IRAK-4 pathway by the tested compound. It should be noted that in the context of the complete organism, other sources for these cytokines exist that are not dependent on the TLR/IRAK-4 pathway, such as e.g., macrophages (upon activation of the Fcγ receptor (Yan et al., 2012)) or T cells (upon activation of the T cell receptor (Brehm et al., 2005)).
4.10.1.1. Experimental Design
Blood was collected from healthy volunteers into lithium heparin tubes by venipuncture, then gently inverted several times to prevent clotting and incubated for at least 15 min at 37° C. on a rocking mixer shaker. Then, 100 μL of blood was dispensed into polypropylene 96-well microplate and pre-incubated in duplicate with 0.3% DMSO or test compound at different concentrations (from 30 to 0.01 μM, 3-fold dilutions to get 0.3% DMSO at the final) for 15 min at 37° C. After this pre-incubation, blood was triggered with CL097 (2 μg/mL from 1 mg/mL solution in water; InvivoGen, tlrl-c97) for 3 h 30 min at 37° C. Microtubes were centrifuged at 5000×g for 10 min at 4° C. and approximately 40 μL of plasma were collected into a polystyrene 96-well plate. Plasma could be analyzed freshly, within 30 min after triggering, or frozen at −80° C. Finally, the quantification of TNFα and IFNα were performed in the plasma using AlphaLISA Kit for TNFα and IFNα according to the manufacturer's instructions and read on the Ensight (PerkinElmer).
For each blood sample, the TNFα concentrations of the samples were determined from the fit. Data were then expressed a percentage of inhibition PIN for each replicate using the formula:
With mean TNFα with CL097=mean TNFα concentration of replicate samples triggered with CL097; TNFαsample1=TNFα concentration of sample 1; mean TNFα with vehicle=mean TNFα concentration of replicate samples treated with vehicle.
Curve fitting for pIC50 determination were generated using mean PIN±sem. Graphs and pIC50 calculations were derived using Prism 5.03 software (GraphPad).

Human Hepatocyte = experiment: Metabolic stability in hepatocytes (human); format: in vitro ADME; conditions: 1 μM test compound, cryopreserved human hepatocytes
Method: (§1) 4.6. Metabolic Stability in Hepatocytes
(§2) The aim of this assay is to determine the metabolic stability of the compound in hepatocytes (cryopreserved) of different species. Low hepatocyte stability may result in the formation of unwanted metabolites, high clearance, and therefore is not desirable.
(§3) The decrease in parent was assessed by measuring the percentage remaining by LC-MS/MS analysis.
(§4) A 10 mM stock solution of test compound in DMSO was first diluted in DMSO to 3 mM, and then in modified Krebs-Henseleit buffer (Sigma, K3753) to 5 μM. This compound dilution was added to a suspension of pooled cryopreserved hepatocytes (BioreclamationIVT) at 37° C. under gentle shaking.
(§5) Final reaction conditions were: 1 μM of test compound, 0.03% DMSO, 0.5 million viable hepatocytes/mL, and 75 μL incubation volume.
(§6) Testosterone (1 μM) and 7-hydroxycoumarin (1 μM) were used, respectively as phase I and phase II metabolic reaction controls.
(§7) After 0, 10, 20, 45, 90, 120 and 180 min of incubation, the reaction was terminated with 225 μL of MeCN:MeOH (2:1) containing 100 ng/mL of diclofenac as analytical internal standard. Samples were mixed, centrifuged and the supernatant analyzed by LC-MS/MS.
(§8) The instrument responses (ratios of test compound and internal standard peak areas) were referenced to the zero time point samples (considered as 100%) in order to determine the percentage of compound remaining.
(§9) Plots of percentage compound remaining were used to determine the intrinsic clearance in the hepatocyte incubations using the following equations:
(§10) Scaled Clint [L/h/kg]=Clint[μL/min/10^6 cells]*#(10^6) cells/g liver*60*( 1/10^6) Scaled Clint unbound [L/h/kg]=Clint [L/h/kg]/Fu,inc where: fu,inc equals hepatocyte binding, derived from microsomal binding (fu,mic) by following equation: […]

Mouse Hepatocyte = experiment: Metabolic stability in hepatocytes (mouse); format: in vitro ADME; conditions: 1 μM test compound, cryopreserved mouse hepatocytes
Method: as §1, §2, §3, §4, §5, §6, §7, §8, §9, §10

SMILES | IC50 ([1]; Homo sapiens) | Human Hepatocyte stability (Perc. remaining at 90 min) (Human Hepatocyte) | Mouse Hepatocyte stability (Perc. remaining at 90 min) (Mouse Hepatocyte) | IC50 [1]
CC(C)(O)CCc1cc2cc(NC(=O)c3cccc(C(F)(F)F)n3)c(C(N)=O)cn2n1 [Compound 4, 2-(3-hydroxy-3-methylbutyl)-5-[[6-(trifluoromethyl)pyridine-2-carbonyl]amino]pyrazolo[1,5-a]pyridine-6-carboxamide] | 0.1 to 500 nM | – | – | –
CNC(=O)c1cn2nc(CCC(C)(C)O)cc2cc1NC(=O)c1cccc(C(F)(F)F)n1 [Compound 5, 2-(3-hydroxy-3-methylbutyl)-N-methyl-5-[[6-(trifluoromethyl)pyridine-2-carbonyl]amino]pyrazolo[1,5-a]pyridine-6-carboxamide] | 1000 to 5000 nM | 94.5 Perc. | 76.25 Perc. | –
COc1cn2nc(CC(F)C(C)(C)O)cc2cc1NC(=O)c1cccn(C2CC2)c1=O (single isomer, unassigned; enantiomer b) [Compound 26, 1-cyclopropyl-N-[2-(2-fluoro-3-hydroxy-3-methyl-butyl)-6-methoxy-pyrazolo[1,5-a]pyridin-5-yl]-2-oxo-pyridine-3-carboxamide Enantiomer B] | – | 97.8 Perc. | – | 1000 to 5000 nM
CNC(=O)c1cn2nc(C3CCOCC3)cc2cc1NC(=O)c1cccc(C(F)F)n1 [Compound 15, 5-[[6-(difluoromethyl)pyridine-2-carbonyl]amino]-N-methyl-2-tetrahydropyran-4-yl-pyrazolo[1,5-a]pyridine-6-carboxamide] | > 5000 nM | – | – | –
CNC(=O)c1cn2nc(C3CCCS(=O)(=O)C3)cc2cc1NC(=O)c1cccc(C(F)(F)F)n1 (stereo not drawn) [Compound 8, 2-(1,1-dioxothian-3-yl)-N-methyl-5-[[6-(trifluoromethyl)pyridine-2-carbonyl]amino]pyrazolo[1,5-a]pyridine-6-carboxamide] | – | 107 Perc. | 75.15 Perc. | –
COc1cn2nc(CCC(C)(C)O)cc2cc1NC(=O)c1cccc(C(F)(F)F)n1 [Compound 3, N-[2-(3-hydroxy-3-methylbutyl)-6-methoxypyrazolo[1,5-a]pyridin-5-yl]-6-(trifluoromethyl)pyridine-2-carboxamide] | 1000 to 5000 nM | 22.8 Perc. | 10.17 Perc. | –
COc1cn2nc(CCC(C)(C)O)cc2cc1NC(=O)c1cccn(C2CCC2)c1=O [Compound 21, 1-cyclobutyl-N-[2-(3-hydroxy-3-methyl-butyl)-6-methoxy-pyrazolo[1,5-a]pyridin-5-yl]-2-oxo-pyridine-3-carboxamide] | 1000 to 5000 nM | 92.15 Perc. | 49.45 Perc. | –
[2H]C([2H])([2H])C(O)(CCc1cc2cc(NC(=O)c3cccn(C4CC4)c3=O)c(OC)cn2n1)C([2H])([2H])[2H] [Compound 23, 1-cyclopropyl-N-[6-methoxy-2-[4,4,4-trideuterio-3-hydroxy-3-(trideuteriomethyl)butyl]pyrazolo[1,5-a]pyridin-5-yl]-2-oxo-pyridine-3-carboxamide] | 0.1 to 500 nM | 101.45 Perc. | – | –
COc1c(NC(=O)c2cccn(C3CC3)c2=O)cc2cc(CCC(C)(C)O)nn2c1C [Compound 13, 1-cyclopropyl-N-[2-(3-hydroxy-3-methyl-butyl)-6-methoxy-7-methyl-pyrazolo[1,5-a]pyridin-5-yl]-2-oxo-pyridine-3-carboxamide] | – | 98.45 Perc. | 87.8 Perc. | –
CNC(=O)c1cn2nc(C3CCN(C)CC3)cc2cc1NC(=O)c1cccc(C(F)(F)F)n1 [Compound 12, N-methyl-2-(1-methyl-4-piperidyl)-5-[[6-(trifluoromethyl)pyridine-2-carbonyl]amino]pyrazolo[1,5-a]pyridine-6-carboxamide] | 1000 to 5000 nM | – | 97.05 Perc. | –
NC(=O)c1cn2nc(C3CCOCC3)cc2cc1NC(=O)c1cccc(C(F)F)n1 [Compound 16, 5-[[6-(difluoromethyl)pyridine-2-carbonyl]amino]-2-tetrahydropyran-4-yl-pyrazolo[1,5-a]pyridine-6-carboxamide] | – | 75.95 Perc. | 51.75 Perc. | –
CCOc1cn2nc(CCC(C)(C)O)cc2cc1NC(=O)c1cccn(C(F)F)c1=O [Compound 9, 1-(difluoromethyl)-N-[6-ethoxy-2-(3-hydroxy-3-methyl-butyl)pyrazolo[1,5-a]pyridin-5-yl]-2-oxo-pyridine-3-carboxamide] | 500 to 1000 nM | 85.6 Perc. | 83.65 Perc. | –
COc1cn2nc(CCC(C)(C)O)cc2cc1NC(=O)c1cccn(C(F)F)c1=O [Compound 7, 1-(difluoromethyl)-N-[2-(3-hydroxy-3-methyl-butyl)-6-methoxy-pyrazolo[1,5-a]pyridin-5-yl]-2-oxo-pyridine-3-carboxamide] | 1000 to 5000 nM | – | 108.25 Perc. | –
[2H]C([2H])([2H])Oc1cn2nc(CCC(C)(C)O)cc2cc1NC(=O)c1cccn(C2CC2)c1=O [Compound 24, 1-cyclopropyl-N-[2-(3-hydroxy-3-methylbutyl)-6-(trideuteriomethoxy)pyrazolo[1,5-a]pyridin-5-yl]-2-oxopyridine-3-carboxamide] | 0.1 to 500 nM | 105 Perc. | – | –
COc1cn2nc(CC(F)C(C)(C)O)cc2cc1NC(=O)c1cccn(C2CC2)c1=O (stereo not drawn) [Compound 22, 1-cyclopropyl-N-[2-(2-fluoro-3-hydroxy-3-methyl-butyl)-6-methoxy-pyrazolo[1,5-a]pyridin-5-yl]-2-oxo-pyridine-3-carboxamide] | 0.1 to 500 nM | 100.05 Perc. | – | –
COc1cn2nc(CC(F)C(C)(C)O)cc2cc1NC(=O)c1cccn(C2CC2)c1=O (single isomer, unassigned; enantiomer a) [Compound 25, 1-cyclopropyl-N-[2-(2-fluoro-3-hydroxy-3-methyl-butyl)-6-methoxy-pyrazolo[1,5-a]pyridin-5-yl]-2-oxo-pyridine-3-carboxamide Enantiomer A] | 500 to 1000 nM | 97.2 Perc. | – | –
CC(C)(O)CCc1cc2cc(NC(=O)c3cccc(C(F)F)n3)c(C(N)=O)cn2n1 [Compound 20, 5-[[6-(difluoromethyl)pyridine-2-carbonyl]amino]-2-(3-hydroxy-3-methyl-butyl)pyrazolo[1,5-a]pyridine-6-carboxamide] | – | 81.65 Perc. | 80.9 Perc. | –
